Experimental data from patent US12257070B2, “Pain assessment method based on deep learning model and analysis device” (NEUROGRIN INC., priority 2019, dated 2025).

Assays:
formalin-induced pain = details: FIG. 10A
Excerpt: The subject animal is a mouse.
The following experimental results are assessment results obtained by inputting an activity value of an individual cell into a neural network constructed using average calcium activity values.
FIG. 10 is divided into baseline (B), early (E), inter (I), late (L), and recovery (R) sections according to time.

capsaicin-induced pain = capsaicin-induced pain assessed by deep learning model from images of cortical nerve cells; type: in vivo, mouse; details: capsaicin pain state compared to before administration and after pain has subsided; model trained with formalin pain data; FIG. 11A
Excerpt: FIG. 11 is an analysis result for capsaicin-induced pain. FIG. 11 is a result of applying a deep learning model trained with formalin pain data to other pain causes. […] FIG. 11B is an ROC curve showing pain classification performance for FIG. 11A. It can be seen from the ROC curve that the AUC value is 0.93, which is a reliable level.

[1] = tested on: cerebellar Bergmann glial cells; experiment: pain assessment using the activity of cerebellar Bergmann glial cells; type: in vivo; details: Bergmann glial cell activity image, cerebellar region; FIG. 13B
Excerpt: The researcher analyzed pain assessments based on areas of a brain other than cortical nerve cells. Pain assessment results using cerebellar Bergmann glial cells will be described below. Bergmann glial cells are a type of glial cell as described above. In this case, the deep learning model must be trained in advance with an image showing the activity of Bergmann glial cells of the cerebellum (e.g., a two-photon microscope image of a cerebellar region). The training data may be a two-photon microscope image of a cerebellar region and pain information (normal state or pain state) at the time of generating a corresponding image. The experimental results below are the results of the analysis device inputting individual cell activity values into the average value-based neural network model.
FIG. 13 is a result of assessing pain using the activity of cerebellar Bergmann glial cells. […] The assessment time for capsaicin was a total of 30 minutes, and the activity was assessed for 10 minutes at the time of administration and was further assessed for 10 minutes before and after administration. […] The reference state (Vehicle) is a state in which capsaicin is not injected. Referring to FIG. 13B, it can be seen that the pain assessment result is distinguished as a pain state for about 10 minutes after capsaicin injection. […]

With `C=O` [Formalin, formalin] the “predicted pain probability (formalin pain)” value (formalin-induced pain; formalin 5% or 1%, sections baseline, early, inter, late, recovery) was “appears only in E (early phase)”.

For `COc1cc(CNC(=O)CCCC/C=C/C(C)C)ccc1O` [capsaicin], the predicted pain probability (capsaicin-induced pain) was “higher” and the “time distinguished as a pain state after capsaicin injection” value [1] was “about 10 minutes”.

With `CCN(CC)CC(=O)Nc1c(C)cccc1C` [lidocaine] the predicted pain probability (formalin-induced pain; analgesic given in addition to a high concentration (5%) of formalin) was “little pain”.
